Where two headings read alike, the source gives them in different places. Each block holds one compound with its values, some of them ahead of it.
Legend:
[1] = LogP by HPLC on reversed phase columns (EEC directive 79/831 Annex V.A8); format: physicochemical
Experimental: Calibration was done with straight-chain alkan2-ones (with 3 to 16 carbon atoms) with known Log P values (measurement of Log P values using retention times with linear interpolation between successive alkanones). Lambda-max-values were determined using UV-spectra from 200 nm to 400 nm and the peak values of the chromatographic signals.

[2] = system: Nippostrongylus brasiliensis; assay: In vitro assay with Nippostrongylus brasiliensis (NIPOBR), acetylcholine esterase readout; conditions: adult worms, read-out: activity (reduction of AChE compared to negative control); for inhibition at 1 ppm: 1 ppm (1 μg/ml); for inhibition at 10 ppm: 10 ppm (10 μg/ml)
Experimental: In Vitro Assay with Nippostrongylus brasiliensis (NIPOBR)
Adult Nippostrongylus brasiliensis were washed with saline buffer containing 100 U/ml penicillin, 0.1 mg/ml streptomycin and 2.5 μg/ml amphotericin B. Test compounds were dissolved in DMSO and worms were incubated in medium in a final concentration of 10 μg/ml (10 ppm) respectively 1 μg/ml (1 ppm). An aliquot of the medium was used to determine the acetylcholine esterase activity in comparison to a negative control. The principle of measuring acetylcholine esterase as readout for anthelmintic activity was described in Rapson et al (1986) and Rapson et al (1987).

[3] = system: Cooperia curticei; assay: In vitro assay with Cooperia curticei (COOPCU), larval mortality; conditions: 120 h, read-out: activity (larval mortality)
Experimental: In Vitro Assay with Cooperia curticei (COOPCU)
(§1) Solvent: Dimethyl Sulfoxide
(§2) To produce a suitable preparation of active compound, 10 mg of active compound are dissolved in 0.5 ml solvent, and the concentrate is diluted with “Ringer's solution” to the desired concentration.
Approximately 40 nematode larvae (Cooperia curticei) are transferred into a test tube containing the compound solution.
After 5 days percentage of larval mortality is recorded. 100% efficacy means all larvae are killed; 0% efficacy means no larvae are killed.

[4] = system: Haemonchus contortus; assay: In vitro assay with Haemonchus contortus (HAEMCO), larval mortality; conditions: 120 h; for mortality at 20 ppm: read-out: activity (larval mortality); for Emax at 0.8 ppm / Emax at 4 ppm / Emax at 20 ppm: HAEMCO, 5dat, comparative example, read-out: % Efficacy
Experimental: In Vitro Assay with Haemonchus contortus (HAEMCO)
as §1, §2
Approximately 40 larvae of the red stomach worm (Haemonchus contortus) are transferred into a test tube containing compound solution.
After 5 days percentage of larval mortality are recorded. 100% efficacy means all larvae are killed, 0% efficacy means no larvae are killed.

[5] = system: Meloidogyne incognita; assay: Meloidogyne incognita (MELGIN) assay, gall formation on salad seedlings; format: in vivo; conditions: 336 h, after 14 days, read-out: nematicidal activity (percentage of gall formation; 100% = no galls)
Experimental: Meloidogyne incognita (MELGIN) Assay
Solvent: 125.0 parts by weight of acetone
To produce a suitable preparation of active compound, 1 part by weight of active compound is mixed with the stated amount of solvent, and the concentrate is diluted with water to the desired concentration.
Vessels are filled with sand, a solution of the active ingredient, a suspension containing eggs and larvae of the southern root-knot nematode (Meloidogyne incognita) and salad seeds. The salad seeds germinate and the seedlings grow. Galls develop in the roots.
After 14 days the nematicidal activity is determined on the basis of the percentage of gall formation. 100% means no galls were found and 0% means the number of galls found on the roots of the treated plants was equal to that in untreated control plants.

[6] = LC-UV, acidic range, 0.1% formic acid in water and acetonitrile, read-out: logP (HCOOH) [a]
[7] = reversed-phase HPLC column, LC-UV, acidic range, 0.1% formic acid in water and acetonitrile, read-out: logP (HCOOH) [a]

SMILES: O=C(NCC(F)(F)c1ncc(-c2ccc3c(c2)OCO3)cc1Cl)c1ccccc1C(F)(F)F [Example 8]
- chromatographic logP ([1]; logP (HCOOH) [a]): 3.53
- inhibition at 1 ppm [2]: ≥ 60%
- inhibition at 10 ppm [2]: ≥ 60%
- mortality at 20 ppm [3]: 100%
- mortality at 20 ppm [4]: 100%
- pest or weed control at 20 ppm [5]: 100%

SMILES: O=C(NCCc1ccc(-c2ccc(OC(F)(F)F)cc2)cc1)c1ccccc1C(F)(F)F [Ex.-No. 1-49, reference compound]
- Emax at 0.8 ppm [4]: 60%
- Emax at 4 ppm [4]: 60%
- Emax at 20 ppm ([4]; 20 ppm): 80%

SMILES: O=C(NCC(F)(F)c1ncc(-c2ccc3c(c2)OC(F)(F)O3)cc1Cl)c1ccccc1C(F)(F)F [Example 25]
- chromatographic logP [1, 6]: 4.18

SMILES: CS(=O)(=O)c1ccc(-c2cnc(C(F)(F)CNC(=O)c3ccccc3C(F)(F)F)c(Cl)c2)cc1 [Example 33]
- chromatographic logP [1, 6]: 2.65

SMILES: CC(F)(CNC(=O)c1ccccc1C(F)(F)F)c1ncc(-c2ccc(F)cc2)cc1Cl (stereo not shown) [Example 21, N-{2-[3-chloro-5-(4-fluorophenyl)pyridin-2-yl]-2-fluoropropyl}-2-(trifluoromethyl) benzamide]
- chromatographic logP [1, 6]: 3.96
- pest or weed control at 20 ppm [5]: 100%

SMILES: CC(=O)Nc1ccc(-c2cnc(C(F)(F)CNC(=O)c3ccccc3C(F)(F)F)c(Cl)c2)cc1 [Example 38]
- chromatographic logP [1, 6]: 2.7

SMILES: O=C(NCCc1ncc(-c2ccc(Cl)cc2)cc1Cl)c1ccccc1C(F)(F)F [Example 1, N-{2-[3-chloro-5-(4-chlorophenyl)pyridin-2-yl]ethyl}-2-(trifluoromethyl)benzamide]
- chromatographic logP [1, 6]: 3.97
- inhibition at 1 ppm [2]: ≥ 60%
- inhibition at 10 ppm [2]: ≥ 60%
- mortality at 20 ppm [3]: 100%
- mortality at 20 ppm ([4]; 20 ppm, after 5 days): 100%
- Emax at 0.8 ppm [4]: 100%
- Emax at 4 ppm [4]: 100%
- Emax at 20 ppm ([4]; 20 ppm): 100%
- pest or weed control at 20 ppm [5]: 100%

SMILES: O=C(NCC(F)(F)c1ncc(-c2ccc(F)cc2)cc1Cl)c1cccnc1C(F)(F)F [Example 26]
- chromatographic logP [1, 6]: 3.29
- pest or weed control at 20 ppm [5]: 100%

SMILES: Cc1ccc(-c2cnc(C(C)(F)CNC(=O)c3ccccc3C(F)(F)F)c(Cl)c2)cc1 (stereo not shown) [Example 29]
- chromatographic logP [1, 6]: 4.35

SMILES: O=C(NCC(F)(F)c1ncc(-c2ccc(Cl)cc2)cc1Cl)c1ccccc1C(F)(F)F [Example 2, N-{2-[3-chloro-5-(4-chlorophenyl)pyridin-2-yl]-2,2-difluoroethyl}-2-(trifluoromethyl)-benzamide]
- chromatographic logP [1, 6]: 4.17
- inhibition at 1 ppm [2]: ≥ 60%
- mortality at 20 ppm [3]: 100%
- mortality at 20 ppm ([4]; 20 ppm, after 5 days): 100%

SMILES: O=C(NCC(F)(F)c1ncc(-c2cc(F)cc(F)c2)cc1Cl)c1ccccc1C(F)(F)F [Example 12]
- chromatographic logP ([1]; logP (HCOOH) [a]): 3.89
- inhibition at 1 ppm [2]: ≥ 60%
- inhibition at 10 ppm [2]: ≥ 60%
- mortality at 20 ppm [3]: 100%
- mortality at 20 ppm [4]: 100%

SMILES: O=C(NCC(F)(F)c1ncc(-c2cccc(C(F)(F)F)c2)cc1Cl)c1ccccc1C(F)(F)F [Example 10]
- chromatographic logP ([1]; logP (HCOOH) [a]): 4.17
- inhibition at 1 ppm [2]: ≥ 60%
- mortality at 20 ppm [3]: 100%
- mortality at 20 ppm [4]: 100%

SMILES: O=C(NCC(F)(F)c1ncc(-c2ccccc2)cc1Cl)c1ccccc1C(F)(F)F [Example 5]
- chromatographic logP ([1]; logP (HCOOH) [a]): 3.75
- inhibition at 1 ppm [2]: ≥ 60%
- inhibition at 10 ppm [2]: ≥ 60%
- mortality at 20 ppm [3]: 100%
- mortality at 20 ppm [4]: 100%
- pest or weed control at 20 ppm [5]: 90%

SMILES: CC(F)(CNC(=O)c1cccnc1C(F)(F)F)c1ncc(-c2ccc(Cl)cc2)cc1Cl (stereo not shown) [Example 20]
- chromatographic logP [1, 6]: 3.83

SMILES: O=C(NCC(F)(F)c1ncc(-c2ccc(F)cc2)cc1Cl)c1ccccc1C(F)(F)F [Example 24]
- chromatographic logP ([1]; logP (HCOOH) [a]): 3.74
- inhibition at 1 ppm [2]: ≥ 60%
- inhibition at 10 ppm [2]: ≥ 60%
- mortality at 20 ppm [3]: 100%
- Emax at 0.8 ppm [4]: 100%
- Emax at 4 ppm [4]: 100%
- Emax at 20 ppm ([4]; 20 ppm): 100%
- mortality at 20 ppm [4]: 100%
- pest or weed control at 20 ppm [5]: 100%

SMILES: O=C(NCC(F)(F)c1ncc(-c2ccc(OC(F)F)cc2)cc1Cl)c1ccccc1C(F)(F)F [Example 4]
- chromatographic logP ([1]; logP (HCOOH) [a]): 3.78
- inhibition at 1 ppm [2]: ≥ 60%
- inhibition at 10 ppm [2]: ≥ 60%
- mortality at 20 ppm [3]: 100%
- mortality at 20 ppm [4]: 100%
- pest or weed control at 20 ppm [5]: 100%

SMILES: COc1ccc(-c2cnc(C(F)(F)CNC(=O)c3ccccc3C(F)(F)F)c(Cl)c2)cc1Cl [Example 6]
- chromatographic logP [1, 6]: 3.94
- mortality at 20 ppm [3]: 100%
- mortality at 20 ppm ([4]; 20 ppm, after 5 days): 100%
- pest or weed control at 20 ppm [5]: 90%

SMILES: O=C(NCC(F)(F)c1ncc(-c2ccc(F)cc2)cc1Cl)c1nccnc1C(F)(F)F [Example 19]
- chromatographic logP [1, 6]: 3.51
- mortality at 20 ppm [3]: 100%
- mortality at 20 ppm ([4]; 20 ppm, after 5 days): 100%
- pest or weed control at 20 ppm [5]: 90%

- chromatographic logP [1, 7]: 1.18
- chromatographic logP ([1]; reversed-phase HPLC column, LC-UV, neutral range, 0.001 molar ammonium acetate solution in water and acetonitrile, read-out: logP [b]): 2.61
SMILES: NCC(F)(F)c1ncc(-c2ccc(F)cc2)cc1Cl [INT-1, 2-[3-chloro-5-(4-fluorophenyl)-2-pyridyl]-2,2-difluoro-ethanamine]

SMILES: CSc1ccc(-c2cnc(C(F)(F)CNC(=O)c3ccccc3C(F)(F)F)c(Cl)c2)cc1 [Example 35]
- chromatographic logP [1, 6]: 4.1

SMILES: CC(F)(CNC(=O)c1ccccc1C(F)(F)F)c1ncc(-c2ccccc2)cc1Cl (stereo not shown) [Example 23]
- chromatographic logP [1, 6]: 3.92

SMILES: O=C(NCC(F)(F)c1ncc(-c2ccc(F)c(C(F)(F)F)c2)cc1Cl)c1ccccc1C(F)(F)F [Example 34]
- chromatographic logP [1, 6]: 4.19

SMILES: O=C(NCC(F)(F)c1ncc(-c2ccc(N3CCCC3)cc2)cc1Cl)c1ccccc1C(F)(F)F [Example 30]
- chromatographic logP [1, 6]: 4.83
- mortality at 20 ppm [3]: 100%
- mortality at 20 ppm ([4]; 20 ppm, after 5 days): 90%

SMILES: CN(C)c1ccc(-c2cnc(C(F)(F)CNC(=O)c3ccccc3C(F)(F)F)c(Cl)c2)cc1 [Example 17]
- chromatographic logP [1, 6]: 4.09
- mortality at 20 ppm [3]: 100%
- mortality at 20 ppm ([4]; 20 ppm, after 5 days): 100%

SMILES: O=C(NCC(F)(F)c1ncc(-c2ccccc2F)cc1Cl)c1ccccc1C(F)(F)F [Example 13]
- chromatographic logP ([1]; logP (HCOOH) [a]): 3.73
- inhibition at 1 ppm [2]: ≥ 60%
- mortality at 20 ppm [3]: 100%
- mortality at 20 ppm [4]: 100%

SMILES: Cc1ccc(-c2cnc(C(C)(F)CNC(=O)c3cccnc3C(F)(F)F)c(Cl)c2)cc1 (stereo not shown) [Example 22]
- chromatographic logP [1, 6]: 2.15

SMILES: CN1CCN(c2ccc(-c3cnc(C(F)(F)CNC(=O)c4ccccc4C(F)(F)F)c(Cl)c3)cc2)CC1 [Example 31]
- chromatographic logP [1, 6]: 1.78
- chromatographic logP ([1]; LC-UV, neutral range, 0.001 molar ammonium acetate solution in water and acetonitrile, read-out: logP [b]): 3.39
- mortality at 20 ppm [3]: 100%
- mortality at 20 ppm ([4]; 20 ppm, after 5 days): 100%

SMILES: O=C(NCC(F)(F)c1ncc(-c2cccc(Cl)c2)cc1Cl)c1ccccc1C(F)(F)F [Example 3]
- chromatographic logP ([1]; logP (HCOOH) [a]): 4.17
- inhibition at 1 ppm [2]: ≥ 60%
- inhibition at 10 ppm [2]: ≥ 60%
- mortality at 20 ppm [3]: 100%
- mortality at 20 ppm [4]: 100%

SMILES: CC(F)(CNC(=O)c1cccnc1C(F)(F)F)c1ncc(-c2ccccc2)cc1Cl (stereo not shown) [Example 28]
- chromatographic logP [1, 6]: 3.38

SMILES: O=C(NCC(F)(F)c1ncc(-c2ccccc2Cl)cc1Cl)c1ccccc1C(F)(F)F [Example 16]
- chromatographic logP ([1]; logP (HCOOH) [a]): 4
- inhibition at 1 ppm [2]: ≥ 60%
- inhibition at 10 ppm [2]: ≥ 60%
- mortality at 20 ppm [3]: 100%
- mortality at 20 ppm [4]: 100%

SMILES: O=C(NCC(F)(F)c1ncc(-c2ccc(N3CCOCC3)cc2)cc1Cl)c1ccccc1C(F)(F)F [Example 32]
- chromatographic logP [1, 6]: 3.59
- mortality at 20 ppm [3]: 100%

- chromatographic logP [1, 7]: 3.29
SMILES: N#Cc1ccc(-c2cnc(C(F)(F)CNC(=O)c3ccccc3C(F)(F)F)c(Cl)c2)cc1 [Example 37]

SMILES: CNc1ccc(-c2cnc(C(F)(F)CNC(=O)c3ccccc3C(F)(F)F)c(Cl)c2)cc1 [Example 36]
- chromatographic logP [1, 6]: 3.39

SMILES: O=C(NCC(F)(F)c1ncc(-c2ccc(SC(F)(F)F)cc2)cc1Cl)c1ccccc1C(F)(F)F [Example 39]
- chromatographic logP [1, 6]: 4.65

SMILES: Cc1ccccc1-c1cnc(C(F)(F)CNC(=O)c2ccccc2C(F)(F)F)c(Cl)c1 [Example 9]
- chromatographic logP [1, 6]: 4
- mortality at 20 ppm [3]: 100%
- mortality at 20 ppm ([4]; 20 ppm, after 5 days): 100%
- pest or weed control at 20 ppm [5]: 100%

From patent US9776967B2, “Carboxamide derivatives as pesticidal compounds” (priority 2013, dated 2017)
